Patent publication US6734139B1, “N-aryl-uracile-based herbicides” (priority 1999, dated 2004)
One block for each compound: values may come before it.

Assays:
Type in all cases: in vivo
Veronica = experiment: Post-emergence test (herbicidal action, Colby): Veronica; conditions: single active compound at 8 g of a.i./ha
From the text: (§1) The expected action for a given combination of two herbicides can be calculated as follows (cf. COLBY, S. R.: “Calculating synergistic and antagonistic responses of herbicide combinations”, Weeds 15, Pages 20-22, 1967):
(§2) If the actual damage exceeds the calculated value, the combination has a superadditive effect, that is to say a synergistic effect.
(§3) To produce a suitable preparation of active compound, 1 part by weight of active compound is mixed with the stated amount of solvent, the stated amount of emulsifier is added and the concentrate is diluted with water to the desired concentration. Formulated products are dissolved in water and then diluted with water to the desired concentration.
(§4) The solutions of the other mixing components (active compounds or safeners) are prepared analogously. The separately prepared solutions of the various mixing components are then combined and, if appropriate, additional substances (formulation auxiliaries, additives, etc.) are added and, if appropriate, water is added to prepare the desired dilution.
(§5) After three weeks, the degree of damage to the plants is rated in % damage in comparison to the development of the untreated control. The figures denote
(§6) 0%=no effect/no damage (like untreated control)

Solanum = experiment: Post-emergence test (herbicidal action, Colby): Solanum; conditions: single active compound at 15 g of a.i./ha
From the text: as §1, §2, §3, §4, §5, §6

maize = experiment: Pre-emergence test in maize (crop plant compatibility); conditions: Table A32
Method: (§7) Solvent: 2 to 3 parts by weight of acetone or N,N-dimethyl-formamide
(§8) Emulsifier: 1 part by weight of alkylaryl polyglycol ether
as §3, §4
(§9) Seeds of the test plants are sown in standard soil. After 24 hours, the soil is sprayed with the preparation of active compound such that the particular amount of active compound desired in each case is applied per unit area. The concentration of active compound in the spray liquor is chosen such that the particular amount of active compound desired in each case is applied in 500 litres of water per hectare. The containers with the test plants are kept in a greenhouse at controlled temperature and controlled illumination until evaluation.
as §6

Galium = experiment: Post-emergence test (herbicidal action, Colby): Galium; conditions: 125 g of a.i./ha
weeds = experiment: Pre-emergence test (herbicidal action against weeds, Colby)
From the text: as §1, §2
The theoretically expected activity for a given combination of three herbicides can likewise be found in the literature mentioned above.
as §7, §8, §3, §4, §9, §5, §6

SMILES: COCc1cnc(C2=NC(C)(C(C)C)C(=O)N2)c(C(=O)O)c1 (stereo not shown) [imazamox, 2-(4,5-dihydro-4-methyl-4-isopropyl-5-oxo-1H-imidazol-2-yl)-5-methoxymethyl-pyridine-3-carboxylic acid]
damage, Veronica (Veronica): 0% | damage, Solanum (Solanum): 0%

Maize (7 days) (maize; 60 g of a.i./ha): 20% | Maize (12 days) (maize; 60 g of a.i./ha): 30% | Maize (21 days) (maize; 60 g of a.i./ha): 18% | Maize (7 days) (maize; 90 g of a.i./ha): 60% | Maize (12 days) (maize; 90 g of a.i./ha): 70% | Maize (21 days) (maize; 90 g of a.i./ha): 64%
SMILES: CCS(=O)(=O)N(C(=O)c1cccs1)c1cc(-n2c(=O)cc(C(F)(F)F)n(N)c2=O)c(F)cc1C#N [I-5, N-[5-(3-amino-2,6-dioxo-4-trifluoromethyl-3,6-dihydro-1(2H)-pyrimidinyl)-2-cyano-4-fluoro-phenyl]-N-(2-thienyl-carbonyl)-1-ethanesulphonamide]

SMILES: CC(C)N.O=C(O)CNCP(=O)(O)O [glyphosate-isopropylammonium, N-phosphonomethyl-glycine (isopropylammonium salt)]
Galium (Galium): 0%

SMILES: COc1cc(OC)nc(NC(=O)NS(=O)(=O)c2cc(NC=O)ccc2C(=O)N(C)C)n1 [foramsulfuron, 2-[[[[(4,6-dimethoxy-2-pyrimidinyl)-amino]-carbonyl]-amino]-sulphonyl]-4-formylamino-N,N-dimethyl-benzamide]
Cassia (pre-emergence test) (weeds; Table A27, 15 g of a.i./ha): 50 | Abutilon (pre-emergence test) (weeds; Table A27, 30 g of a.i./ha): 50 | Polygonum (pre-emergence test) (weeds; Table A27, 30 g of a.i./ha): 40

SMILES: CCNc1nc(Cl)nc(NC(C)C)n1 [atrazine, 6-chloro-4-ethylamino-2-isopropylamino-1,3,5-triazine]
Avena (pre-emergence test) (weeds; Table A25, 500 g of a.i./ha): 80 | Bromus (pre-emergence test) (weeds; Table A25, 500 g of a.i./ha): 70 | Cyperus (pre-emergence test) (weeds; Table A25, 500 g of a.i./ha): 50 | Lolium (pre-emergence test) (weeds; Table A25, 500 g of a.i./ha): 90
